Measured values from patent US20150376570A1, “METHODS AND COMPOSITIONS FOR PRODUCING INDUCED HEPATOCYTES” (GENENTECH, INC., priority 2012, published 2015).

Tests used:
TLR3 = TLR3 activation on 11TF transfection with or without Poly I:C; assay type: cell-based, human; conditions: daily transfection and/or daily Poly I:C supplementation
Experimental: (See Lee et al., (2012) Cell 151:547-558.) Experiments were performed to examine whether 11TF mRNA mixture could activate TLR3 and to determine whether further activation would increase hepatic induction.
Experiments were performed to test whether daily supplementation with Poly I:C, a known TLR3 agonist, accompanying 11TF mRNA mixture transfection would further increase expression of albumin and AFP.

BJ fibroblasts = test: Albumin and α-fetoprotein gene expression by qPCR in transfected fibroblasts; assay type: cell-based, human; conditions: Example 13, 5 consecutive days, 6-well plate
Description: RPL19 (Hs02338565_gH) was used for endogenous control assays. The ViiA 7 Real Time PCR System (Applied Biosystems) was used to perform and analyze qPCRs. If gene expression was not detectable in a sample, an artificial cycle threshold of 41 was applied to allow for comparison.
Reprogramming experiments were generally performed as follows. Initial reprogramming experiments used mRNA pools containing six different mRNAs encoding the following six transcription factors: FOXA1, FOXA2, FOXA3, HNF4A, HNF1A, and GATA4. This six transcription factor pool containing mRNAs encoding FOXA1, FOXA2, FOXA3, HNF4A, HNF1A, and GATA4 is herein referred to as 6TF. The 6TF mRNA mixture used in these studies contained the mRNA molecules at a molar ratio of 1:1:1:1:1:1. […]
Albumin (ALB) and α-fetoprotein (AFP) are genes expressed almost exclusively in cells of hepatocyte lineage. […] After 5 days and 9 days, gene expression levels for albumin and α-fetoprotein in the cells were determined by qPCR using methods as described above.
BJ fibroblasts were transfected once daily with 6TF mRNA mixture (See Table 6 above for 6TF mRNA cocktail composition) or each of the 5TF mRNA mixtures (described above and shown in Table 6) for 5 consecutive days, as described above. After 5 days, gene expression levels for albumin and AFP in the cells were determined by qPCR using methods as described above. […]

Substance | TLR3 expression above control (TLR3) | AFP gene expression vs non-transfected control fibroblasts (BJ fibroblasts) | albumin gene expression vs non-transfected control fibroblasts (BJ fibroblasts)
Poly I:C | did not activate TLR3 |  | 
HNF1A: mRNA encoding only HNF1A |  | slightly above | slightly above
